{"source": "paper PMC4666608", "about": "“Metabolic Profiling of Chicken Embryos Exposed to Perfluorooctanoic Acid (PFOA) and Agonists to Peroxisome Proliferator-Activated Receptors” (PLoS ONE, 2015)", "key": {"human PPARα": {"tested_on": "human PPARα", "design": "method as in PMID 16038868", "details": "reporter cell assay; read-out: EC50, activation of transcription through human PPARα; cited from earlier work"}, "human PPARγ": {"tested_on": "human PPARγ", "design": "method as in PMID 16038868", "details": "reporter cell assay; read-out: EC50, activation of transcription through human PPARγ; cited from earlier work"}, "[1]": {"experiment": "Determination of PFOA in blood plasma (UPLC-MS/MS)", "assay_type": "in vivo, Gallus gallus domesticus", "details": "E12; for concentration at 5 d: chicken, plasma, other: air sac injection in ovo", "method": "Controls were injected with 20 μL vehicle only (DMSO).\nPlasma was collected and stored at -70°C.\nThe concentration of PFOA was analyzed in liver and blood plasma from control embryos and embryos exposed to PFOA (50, 250 and 1000 μg/egg). Five individual livers from each PFOA-treated group were analyzed. Very low PFOA concentrations were anticipated in the controls and therefore the amount of tissue was increased by pooling 2–3 livers, and five such pools were analyzed. Four plasma samples (50 μL) were analyzed from each group except the group exposed to 1000 μg PFOA/egg for which three samples were analyzed. Extraction blanks were included for each batch. The analyzed amount of liver homogenate was 100 mg for controls and 50 mg for PFOA-exposed embryos. Livers were homogenized using the bead mill Bullet Blender® Storm 24 (Next Advance, Inc. New York, USA) with stainless steel beads at speed 8 for 3 min. Plasma and liver samples were spiked with 50 ng of internal standard (^13C4-PFOA, Wellington, Guelph, Canada). Five milliliters of acetonitrile (Labscan, Gliwice, Poland) was added to the samples followed by vortex mixing, sonication (20 min), and centrifugation (10 000 g, 5 min). Extraction was performed twice for livers and once for plasma. One mL of supernatant from the extracts was transferred to a tube prepared with 50 mg ENVI-Carb™ 20/400 mesh (Supelco, Bellefonte, PA, USA) and 100 μL glacial acetic acid (Sigma-Aldrich). The carbon suspension was vortex mixed and then filtrated using a 0.2-μm GHP filter (Pall, East Hills, NY, USA). Filtrate (0.4 mL) was mixed with 2 ng of the recovery standard (^13C8-PFOA, Wellington Laboratories) and 0.6 mL 2 mM ammonium acetate was added. Analysis was performed using an Acquity UPLC coupled to a Xevo-TQS MS/MS (Waters Corporation, Milford, MA, USA) as described previously. The recovery standard ^13C8-PFOA was added before injection to assess the recoveries of the internal standard ^13C4-PFOA. The recoveries ranged between 75 and 94% (average 82%) for plasma and between 64 and 119% (average 84%) for liver."}, "[2]": {"details": "for Body weight, Mean ± SD / Liver-somatic index, Mean ± SD: E12; for Body weight / Liver weight / Liver-somatic index: group mean", "method": "The experimental procedures in this study were approved by the Uppsala Ethical Committee for Research on Animals (Permit number C 211/12). Fertilized chicken eggs (Gallus gallus domesticus) were obtained from a local breeder (Ova Production AB, Vittinge, Sweden). The egg weights were 60 ± 4 g (mean and standard deviation). The eggs were incubated at 37.5°C and 60% relative humidity with automatic turning every six hours. The day the eggs were placed in the incubator was defined as embryonic day zero (E0). Chicken embryos were exposed to test substances by air sac injection in eggs incubated for seven days (E7). At this stage, the extraembryonic allantoic blood vessel network has grown to cover the inner shell membrane beneath the air sac and the injected substance will come in direct contact with the vascular network. The exposures were performed as follows: Unfertilized eggs and poorly developing embryos were recognized by candling and were sorted out. Eggs with embryos of normal size were collected and randomly distributed into the different treatment groups. On E7, the blunt end of each egg was wiped with alcohol and a small hole was drilled through the shell above the air sac. The dissolved test substance (20 μl) was deposited onto the inner shell membrane in the air sac and the hole was sealed with melted paraffin wax. Following injection, eggs were held horizontally and rotated for a few seconds to allow dispersal over the inner shell membrane in the air sac. Each egg was marked with a number specifying the treatment group and was placed at a random location in the incubator.\nThe doses were 150 μg/egg (approximately 2.5 mg/kg egg) for GW7647 and rosiglitazone and 50, 250 or 1000 μg/egg for PFOA (approximately 0.83, 4.2 and 18 mg/kg egg, respectively). Controls were injected with 20 μL vehicle only (DMSO). Due to the large number of embryos required, the experiment was divided into four replicate experiments (replicate A-D) performed the same way but on separate occasions. The number of exposed embryos was 10–15 for each treatment group and replicate.\nEmbryos and livers were weighed and the liver-somatic index was calculated (100 x liver weight/body weight). Livers were collected from the control group and from each of the PFOA groups for determination of PFOA concentrations. These livers were stored at -20°C and later extracted and analyzed as described below. Four females and four males from each PFOA group (except the 1000 μg/egg group) and from the control group were also randomly chosen for evaluation of signs of overt liver toxicity using liver histology (method described in S1 Methods).\nThe software GraphPad Prism version 5 (GraphPad Software Inc, San Diego, CA, USA) was used for univariate and bivariate statistics. Mortality rates were analyzed with Fisher’s exact test. Body weight, liver-somatic index and concentrations of plasma lipids were initially analyzed using two-way analysis of variance (two-way ANOVA) with treatment and sex (or treatment and replicate) as independent variables. […] Metabolites were selected by multivariate methods as described below and differences in concentrations (treatment groups vs control group as well as females vs males) were then tested using Student’s t-test. The results of these t-tests on metabolite concentrations were used in an exploratory way to find candidate metabolites and for that reason the p-values were not corrected for multiple comparisons."}, "chicken embryos": {"tested_on": "chicken embryos", "details": "injection before start of incubation; cited from earlier work"}, "[3]": {"details": "PFOA 1000 μg/egg, five embryos from replicate A"}, "[4]": {"details": "group PFOA 1000 (1000 µg/egg), five embryos, replicate A only"}}, "note": "Where “and” joins values, the source holds several entries; their conditions need not be identical. Equal values may be shown once. Read-outs that look alike come from different tables or passages of the source."}
{"compound": "CN(CCOc1ccc(CC2SC(=O)NC2=O)cc1)c1ccccn1", "note": "(stereo not shown) [Rosiglitazone, rosiglitazone, reference compound]", "values": [{"measurement": "EC50", "setting": "human PPARγ", "value": 18, "unit": "nM"}]}
{"compound": "O=C(O)C(F)(F)C(F)(F)C(F)(F)C(F)(F)C(F)(F)C(F)(F)C(F)(F)F", "note": "[PFOA, perfluorooctanoic acid]", "values": [{"measurement": "Concentration in plasma, individual embryo", "setting": "[1]; PFOA 50 µg/egg, female embryos", "value": "2453 ng/mL and 2350 ng/mL"}, {"measurement": "Concentration in plasma, individual embryo", "setting": "[1]; PFOA 50 µg/egg, male embryos", "value": 1759, "unit": "ng/mL"}, {"measurement": "Concentration in plasma, individual embryo", "setting": "[1]; PFOA 250 µg/egg, female embryos", "value": 8562, "unit": "ng/mL"}, {"measurement": "Concentration in plasma, individual embryo", "setting": "[1]; PFOA 250 µg/egg, male embryos", "value": "5531 ng/mL and 5643 ng/mL"}, {"measurement": "Concentration in plasma, individual embryo", "setting": "[1]; PFOA 1000 µg/egg", "value": "17963 ng/mL and 18228 ng/mL"}, {"measurement": "concentration at 5 d", "setting": "[1]; 50 μg/egg, 50 μg PFOA/egg on E7, read-out: Mean PFOA concentration in plasma", "value": 2000, "unit": "ng/mL"}, {"measurement": "concentration at 5 d", "setting": "[1]; 50 µg/egg, PFOA 50 µg/egg, read-out: Concentration in plasma, Mean", "value": 2000, "unit": "ng/mL"}, {"measurement": "concentration at 5 d", "setting": "[1]; 50 µg/egg, PFOA 50 µg/egg, read-out: Concentration in plasma, individual embryo", "value": 1440, "unit": "ng/mL"}, {"measurement": "concentration at 5 d", "setting": "[1]; 250 μg/egg, 250 μg PFOA/egg on E7, read-out: Mean PFOA concentration in plasma", "value": 6300, "unit": "ng/mL"}, {"measurement": "concentration at 5 d", "setting": "[1]; 250 µg/egg, PFOA 250 µg/egg, read-out: Concentration in plasma, Mean", "value": 6300, "unit": "ng/mL"}, {"measurement": "concentration at 5 d", "setting": "[1]; 250 µg/egg, PFOA 250 µg/egg, read-out: Concentration in plasma, individual embryo", "value": 5480, "unit": "ng/mL"}, {"measurement": "concentration at 5 d", "setting": "[1]; 1000 μg/egg, 1000 μg PFOA/egg on E7, read-out: Mean PFOA concentration in plasma", "value": 18000, "unit": "ng/mL"}, {"measurement": "concentration at 5 d", "setting": "[1]; 1000 µg/egg, PFOA 1000 µg/egg, read-out: Concentration in plasma, Mean", "value": 17600, "unit": "ng/mL"}, {"measurement": "concentration at 5 d", "setting": "[1]; 1000 µg/egg, PFOA 1000 µg/egg, read-out: Concentration in plasma, individual embryo", "value": 16700, "unit": "ng/mL"}, {"measurement": "Body weight, Mean ± SD", "setting": "[2]; PFOA 50 μg/egg", "value": "4.2 ± 0.5", "unit": "g"}, {"measurement": "Liver-somatic index, Mean ± SD", "setting": "[2]; PFOA 50 μg/egg", "value": "1.7 ± 0.1", "unit": "%"}, {"measurement": "Body weight, Mean ± SD", "setting": "[2]; PFOA 250 μg/egg", "value": "4.3 ± 0.4", "unit": "g"}, {"measurement": "Liver-somatic index, Mean ± SD", "setting": "[2]; PFOA 250 μg/egg", "value": "1.7 ± 0.2", "unit": "%"}, {"measurement": "Body weight, Mean ± SD", "setting": "[2]; [3]", "value": "4.6 ± 0.4", "unit": "g"}, {"measurement": "Liver-somatic index, Mean ± SD", "setting": "[2]; [3]", "value": "2.0 ± 0.2", "unit": "%"}, {"measurement": "Body weight", "setting": "[2]; group PFOA 50 (µg/egg)", "value": 4.2, "unit": "g"}, {"measurement": "Liver weight", "setting": "[2]; group PFOA 50 (µg/egg)", "value": 70.6, "unit": "mg"}, {"measurement": "Liver-somatic index", "setting": "[2]; group PFOA 50 (µg/egg)", "value": 1.7, "unit": "%"}, {"measurement": "Body weight", "setting": "[2]; group PFOA 250 (µg/egg)", "value": 4.3, "unit": "g"}, {"measurement": "Liver weight", "setting": "[2]; group PFOA 250 (µg/egg)", "value": 72.7, "unit": "mg"}, {"measurement": "Liver-somatic index", "setting": "[2]; group PFOA 250 (µg/egg)", "value": 1.7, "unit": "%"}, {"measurement": "Body weight", "setting": "[2]; [4]", "value": 4.6, "unit": "g"}, {"measurement": "Liver weight", "setting": "[2]; [4]", "value": 91.5, "unit": "mg"}, {"measurement": "Liver-somatic index", "setting": "[2]; [4]", "value": 2.0, "unit": "%"}, {"measurement": "Dose at which increased mortality was reported", "setting": "chicken embryos", "value": 5, "unit": "mg/kg egg"}, {"measurement": "Doses with lack of effect on hatching success or mortality", "setting": "chicken embryos", "value": "up to 10 mg/kg egg"}, {"measurement": "Lowest observed effect level, increased embryo mortality", "setting": "chicken embryos", "value": 2, "unit": "mg/kg egg"}]}
